# Measured values taken from patent US8039466B2, “5-hydroxymethyl-oxazolidin-2-one antibacterials” (Actelion Pharmaceutical Ltd., priority 2006, dated 2011).
# Where two headings read alike, the source gives them in different places.
# Assays:
# Assay in all cases: MIC by microdilution in cation-adjusted Mueller-Hinton Broth (NCCLS)
# Type in all cases: cell-based
# M. catarrhalis A894 = conditions: Moraxella catarrhalis, pH of test medium 7.2-7.3
# Description: (§1) These assays have been performed following the description given in “Methods for dilution Antimicrobial Susceptibility Tests for Bacteria that Grow Aerobically, 4th ed.; Approved standard: NCCLS Document M7-A4; National Committee for Clinical Laboratory Standards Villanova, Pa., USA, 1997”. Minimal inhibitory concentrations (MICs; mg/l) were determined in cation-adjusted Mueller-Hinton Broth (BBL) by a microdilution method following NCCLS guidelines (National Committee for Clinical Laboratory Standards. Methods for Dilution Antimicrobial Susceptibility). The pH of the test medium was 7.2-7.3. All the above Examples were tested against several Gram positive and Gram negative bacteria.
# S. Pneumoniae 49619 = conditions: Streptococcus pneumoniae
# Description: as §1
# S. aureus A798 = conditions: Staphylococcus aureus
# Description: as §1
# [1] = pH of test medium 7.2-7.3, read-out: MIC S. Pneumoniae 49619
# [2] = A798, pH of test medium 7.2-7.3, read-out: MIC S. aureus A798
compound,measurement,setting,value
"O=C(O)c1cn(C2CC2)c2c3c(c(F)cc2c1=O)N1CCC(O)(COc2ccc(N4C[C@H](CO)OC4=O)cc2F)C[C@H]1CO3 (mixture of isomers) [Example 6, (6aS,8RS)-4-cyclopropyl-11-fluoro-8-[2-fluoro-4-((R)-5-hydroxymethyl-2-oxo-oxazolidin-3-yl)-phenoxymethyl]-8-hydroxy-1-oxo-1,4,6,6a,7,8,9,10-octahydro-5-oxa-4,10a-diaza-chrysene-2-carboxylic acid]",MIC,M. catarrhalis A894,0.5 µg/mL
same,MIC,S. Pneumoniae 49619; [1],0.25 µg/mL
same,MIC,S. aureus A798; [2],0.5 µg/mL
"O=C(O)c1cn(C2CC2)c2c3c(c(F)cc2c1=O)N1CCC(O)(COc2ccc(N4C[C@H](CO)OC4=O)cc2F)C[C@@H]1CO3 (mixture of isomers) [Example 7, (6aR,8RS)-4-cyclopropyl-11-fluoro-8-[2-fluoro-4-((R)-5-hydroxymethyl-2-oxo-oxazolidin-3-yl)-phenoxymethyl]-8-hydroxy-1-oxo-1,4,6,6a,7,8,9,10-octahydro-5-oxa-4,10a-diaza-chrysene-2-carboxylic acid]",MIC,S. Pneumoniae 49619; [1],0.25 µg/mL
"O=C(O)c1cn(C2CC2)c2c3c(c(F)cc2c1=O)N1C[C@](O)(COc2ccc(N4C[C@H](CO)OC4=O)cc2F)C[C@H]1CO3 [Example 1, (13S,16S)-1-cyclopropyl-7-fluoro-16-[2-fluoro-4-((R)-5-hydroxymethyl-2-oxo-oxazolidin-3-yl)-phenoxymethyl]-16-hydroxy-4-oxo-1,4,13,15,16,17-hexahydro-12H-11-oxa-1,14-diaza-cyclopenta[a]phenanthrene-3-carboxylic acid]",MIC,S. Pneumoniae 49619; [1],≤ 0.063 µg/mL
"C[C@@H](N)C(=O)OC[C@H]1CN(c2ccc(OC[C@]3(O)C[C@H]4COc5c(c(F)cc6c(=O)c(C(=O)O)cn(C7CC7)c56)N4C3)c(F)c2)C(=O)O1 [Example 2, (13S,16S)-16-{4-[(R)-5-((R)-2-amino-propionyloxymethyl)-2-oxo-oxazolidin-3-yl]-2-fluoro-phenoxymethyl}-1-cyclopropyl-7-fluoro-16-hydroxy-4-oxo-1,4,13,15,16,17-hexahydro-12H-11-oxa-1,14-diaza-cyclopenta[a]phenanthrene-3-carboxylic acid]",MIC,S. Pneumoniae 49619; [1],0.125 µg/mL
"CCn1cc(C(=O)O)c(=O)c2cc(F)c3c(c21)OC[C@@H]1C[C@@](O)(COc2ccc(N4C[C@H](CO)OC4=O)cc2F)CN31 [Example 3, (13S,16S)-1-ethyl-7-fluoro-16-[2-fluoro-4-((R)-5-hydroxymethyl-2-oxo-oxazolidin-3-yl)-phenoxymethyl]-16-hydroxy-4-oxo-1,4,13,15,16,17-hexahydro-12H-11-oxa-1,14-diaza-cyclopenta[a]phenanthrene-3-carboxylic acid]",MIC,M. catarrhalis A894,0.125 µg/mL
same,MIC,S. Pneumoniae 49619; [1],0.25 µg/mL
same,MIC,S. aureus A798; [2],0.5 µg/mL
"O=C(O)c1cn(C2CC2)c2c3c(c(F)cc2c1=O)N1C[C@H](COc2ccc(N4C[C@H](CO)OC4=O)cc2F)C[C@H]1CO3 [Example 4, (13S,16R)-1-cyclopropyl-7-fluoro-16-[2-fluoro-4-((R)-5-hydroxymethyl-2-oxo-oxazolidin-3-yl)-phenoxymethyl]-4-oxo-1,4,13,15,16,17-hexahydro-12H-11-oxa-1,14-diaza-cyclopenta[a]phenanthrene-3-carboxylic acid]",MIC,S. Pneumoniae 49619; [1],0.25 µg/mL
"O=C(O)c1cn(C2CC2)c2c3c(c(F)cc2c1=O)N1C[C@@H](COc2ccc(N4C[C@H](CO)OC4=O)cc2F)C[C@H]1CO3 [Example 5, (13S,16S)-1-cyclopropyl-7-fluoro-16-[2-fluoro-4-((R)-5-hydroxymethyl-2-oxo-oxazolidin-3-yl)-phenoxymethyl]-4-oxo-1,4,13,15,16,17-hexahydro-12H-11-oxa-1,14-diaza-cyclopenta[a]phenanthrene-3-carboxylic acid]",MIC,S. Pneumoniae 49619; [1],0.25 µg/mL
"O=C(O)c1cn(C2CC2)c2c3c(c(F)cc2c1=O)N1C[C@@](COc2ccc(N4C[C@H](CO)OC4=O)cc2F)(OP(=O)(O)O)C[C@H]1CO3 [Example 8, (13S,16S)-1-cyclopropyl-7-fluoro-16-[2-fluoro-4-((R)-5-hydroxymethyl-2-oxo-oxazolidin-3-yl)-phenoxymethyl]-4-oxo-16-phosphonooxy-1,4,13,15,16,17-hexahydro-12H-11-oxa-1,14-diaza-cyclopenta[a]phenanthrene-3-carboxylic acid]",MIC,"S. aureus A798; A798, in the presence of human alkaline phosphatase, read-out: MIC against S. aureus A798",0.25 µg/mL
same,MIC,"S. aureus A798; A798, phosphatase absent, read-out: MIC against S. aureus A798",4 µg/mL
"O=C(O)c1c[nH]c2c3c(c(F)cc2c1=O)N1C[C@](O)(COc2ccc(N4C[C@H](CO)OC4=O)cc2F)C[C@H]1CO3 [Example 9, (13S,16S)-7-fluoro-16-[2-fluoro-4-((R)-5-hydroxymethyl-2-oxo-oxazolidin-3-yl)-phenoxymethyl]-16-hydroxy-4-oxo-1,4,13,15,16,17-hexahydro-12H-11-oxa-1,14-diaza-cyclopenta[a]phenanthrene-3-carboxylic acid]",MIC,S. Pneumoniae 49619; [1],0.25 µg/mL
"C[C@H](N)C(=O)OC[C@H]1CN(c2ccc(OC[C@]3(O)C[C@H]4COc5c(c(F)cc6c(=O)c(C(=O)O)cn(C7CC7)c56)N4C3)c(F)c2)C(=O)O1.Cl [Example 11, (13S,16S)-16-{4-[(R)-5-((S)-2-amino-propionyloxymethyl)-2-oxo-oxazolidin-3-yl]-2-fluoro-phenoxymethyl}-1-cyclopropyl-7-fluoro-16-hydroxy-4-oxo-1,4,13,15,16,17-hexahydro-12H-11-oxa-1,14-diaza-cyclopenta[a]phenanthrene-3-carboxylic acid hydrochloride]",MIC,"S. Pneumoniae 49619; in the absence of human serum, read-out: MIC against S. Pneumoniae 49619",≤ 0.063 µg/mL
"O=C(O)c1cn(C2CC2)c2c3c(c(F)cc2c1=O)N1C[C@](O)(COc2ccc(N4C[C@H](COC(=O)C5CCNCC5)OC4=O)cc2F)C[C@H]1CO3 [Example 12, (13S,16S)-1-cyclopropyl-7-fluoro-16-{2-fluoro-4-[(R)-2-oxo-5-(piperidine-4-carbonyloxymethyl)-oxazolidin-3-yl]-phenoxymethyl}-16-hydroxy-4-oxo-1,4,13,15,16,17-hexahydro-12H-11-oxa-1,14-diaza-cyclopenta[a]phenanthrene-3-carboxylic acid]",MIC,"S. aureus A798; A798, human serum absent, read-out: MIC against S. aureus A798",8 µg/mL
same,MIC,"S. aureus A798; A798, in the presence of human serum, read-out: MIC against S. aureus A798",2 µg/mL
